Earlier results in US20080044504A1, “Pomegranate Juice, Pomegranate Juice Powder and Process for Producing the Powder” (Marukin Bio, Inc., priority 2004, published 2008).
Read-outs that look alike come from different tables or passages of the source.

Tested on: estrogen receptor

binding to the estrogen receptor [%] | binding to the estrogen receptor (binding rate of DES defined as 100%) [%] | SMILES
1.7 | – | O=c1c(-c2ccc(O)cc2)coc2cc(O)cc(O)c12 [genistein]
– | 0.04 | O=c1c(-c2ccc(O)cc2)coc2cc(O)ccc12 [daidzein]
